# Measurements reported in PMC2009384, “The carcinogenicity of polycyclic hydrocarbon epoxides in newborn mice” (British Journal of Cancer, 1975).
# Test system: newborn Swiss mice
# Test: Experiment II: carcinogenicity in newborn mice, chrysene, 7-methylbenz(a)anthracene and K region epoxides (s.c. injection, tumour incidence to 70-75 weeks)
# Details: for effect on the incidence of liver, lung or other tumours: in the doses tested (3 x 100 µg or 1 x 60 µg)
# From the text: Br. J. Cancer (1975) 31, 182 THE CARCINOGENICITY OF POLYCYCLIC HYDROCARBON EPOXIDES IN NEWBORN MICE P. L. GROVER, P. SIMS, B. C. V. MITCHLEY AND F. J. C. ROE From the Chester Beatty Research Institute, Institute of Cancer Research, Royal Cancer Hospital, Fulham Road, London, SW3 6JB Received 9 August 1974. […] THE HYPOTHESIS that the carcino- genicity of polycyclic hydrocarbons is associated with the formation of epoxide metabolites (Grover, Hewer and Sims, 1971, 1972; Keysell et al., 1973) is sup- ported by some experimental evidence but remains unproven. […] The epoxides can also act as alkylating agents (Grover and Sims, 1970) and as mutagens (Ames, Sims and Grover, 1972; Huberman et al., 1971; Cookson, Sims and Grover, 1971; Fahmy and Fahmy, 1973). […] The newborn mouse, which is susceptible to carcinogenic polycyclic hydrocarbons (Roe, Rowson and Salaman, 1961; Roe, Mitchley and Walters, 1963; Walters and Roe, 1964, 1966) can be considered as a convenient source of several types of rapidly dividing cells. Consequently we have tested the K region epoxides derived from phenanthrene, benz(a)anthracene, 7-methylbenz(a)anthracene, dibenz(a,h)- anthracene, chrysene and 3-methylchol- anthrene, together with some of the CARCINOGENICITY OF POLYCYCLIC HYDROCARBON EPOXIDES IN MICE 183 parent hydrocarbons, for carcinogenicity using newborn mice. This paper presents the results that were obtained in these experiments. MATERIALS AND METHODS The polycyclic hydrocarbon epoxides, phenanthrene 9,10-oxide, benz(a)anthracene 5,6-oxide, 7-methylbenz(a)anthracene 5,6- oxide, dibenz(a,h)anthracene 5,6-oxide, chry- sene 5,6-oxide and 3-methylcholanthrene 11,12-oxide were prepared from the parent hydrocarbons (Newman and Blum, 1964; Boyland and Sims, 1965; Sims 1966). Two experiments were undertaken fol- lowing similar protocols. For each experi- ment Swiss mice from a specific pathogen- free colony were time mated so as to produce a large number of litters over the course of 2 or 3 days. […] Test compounds were suspended in poly- ethylene glycol (PEG) 400 and injections of 0-02 ml of the suspension were given by introducing a 25 gauge hypodermic needle through the skin near the root of the tail and threading it subcutaneously to deliver the injected material in the interscapular region. Injections were given to every mouse on the first day or first 3 days of life. The details of treatments and numbers of mice of each sex in each group are shown in Table I (Experiment I) and Table II (Ex- periment II). Surviving mice were weaned when they w ere 21 days old. Thereafter, males and females w ere separated and housed 6 per cage in metal boxes. A mixture of sawdust and wood shavings was used as bedding. The mice were fed on a standard cubed diet (Formulation 86 from C. Holdman and Sons (Plow co Feeds), Byers Lane, South Godstone, Surrey) and water was given ad libitum. Mice were inspected daily, and at weekly intervals they were weighed and palpated for tumours and other lesions. […] The experiment was terminated when surviving mice were between 70 and 75 weeks old. A full routine post- mortem examination, which included disten- sion of the urinary bladder with fixative, was carried out. The number of lesions thought to be neoplasms and the size of the largest such lesion in each organ affected were recorded. All tissues with suspected neoplasms were fixed in Bouin's solution. Haematoxylin and eosin stained 5 µm paraffin wax sections were prepared and examined microscopically. RESULTS The results of the two experiments in terms of tumour incidence are sum- marized in […].
# [1] = females, 60 µg, 1 treatment (Day 0 only) s.c. in PEG 400
# [2] = males, 60 µg, 1 treatment (Day 0 only) s.c. in PEG 400
# [3] = females, 100 µg per treatment, 3 treatments
# [4] = females, 100 µg per treatment, 3 treatments (Days 0, 1 and 2) s.c. in PEG 400
# [5] = males, 100 µg per treatment, 3 treatments
# [6] = males, 100 µg per treatment, 3 treatments (Days 0, 1 and 2) s.c. in PEG 400
smiles,measurement,setting,value
"c1ccc2c(c1)-c1cc3ccc4ccccc4c3cc1C1OC21 (stereo not drawn) [Dibenz(a,h)anthracene 5,6-oxide]",No. of mice examined at p.m. at termination of experiment (70-75th week) with liver tumours,"females, 60 µg, 1 treatment",0
same,No. of mice examined at p.m. at termination of experiment (70-75th week) with lung tumours,"females, 60 µg, 1 treatment",1
same,No. of mice examined at p.m. at termination of experiment (70-75th week) with multiple liver tumours,"females, 60 µg, 1 treatment",0
same,No. of mice examined at p.m. at termination of experiment (70-75th week) with multiple lung tumours,"females, 60 µg, 1 treatment",0
same,No. of mice examined at p.m. at termination of experiment (70-75th week) with other tumours,"females, 60 µg, 1 treatment",1
same,No. of mice examined at p.m. from 50-70th week with liver tumours,"females, 60 µg, 1 treatment",0
same,No. of mice examined at p.m. from 50-70th week with lung tumours,"females, 60 µg, 1 treatment",0
same,No. of mice examined at p.m. from 50-70th week with other tumours,"females, 60 µg, 1 treatment",0
same,No. of survivors at 50 weeks,[1],20
same,No. of survivors at 70 weeks,[1],19
same,"effect on the incidence of liver, lung or other tumours",,without apparent effect
same,No. of mice examined at p.m. at termination of experiment (70-75th week) with liver tumours,"males, 60 µg, 1 treatment",2
same,No. of mice examined at p.m. at termination of experiment (70-75th week) with lung tumours,"males, 60 µg, 1 treatment",0
same,No. of mice examined at p.m. at termination of experiment (70-75th week) with multiple liver tumours,"males, 60 µg, 1 treatment",1
same,No. of mice examined at p.m. at termination of experiment (70-75th week) with multiple lung tumours,"males, 60 µg, 1 treatment",0
same,No. of mice examined at p.m. at termination of experiment (70-75th week) with other tumours,"males, 60 µg, 1 treatment",0
same,No. of mice examined at p.m. from 50-70th week with liver tumours,"males, 60 µg, 1 treatment",0
same,No. of mice examined at p.m. from 50-70th week with lung tumours,"males, 60 µg, 1 treatment",0
same,No. of mice examined at p.m. from 50-70th week with other tumours,"males, 60 µg, 1 treatment",0
same,No. of survivors at 50 weeks,[2],19
same,No. of survivors at 70 weeks,[2],16
"c1ccc2c(c1)-c1ccccc1C1OC21 (stereo not drawn) [phenanthrene 9,10-oxide]",No. of mice examined at p.m. at termination of experiment (70-75th week) with liver tumours,[3],2
same,No. of mice examined at p.m. at termination of experiment (70-75th week) with lung tumours,[3],0
same,No. of mice examined at p.m. at termination of experiment (70-75th week) with multiple liver tumours,[3],1
same,No. of mice examined at p.m. at termination of experiment (70-75th week) with multiple lung tumours,[3],0
same,No. of mice examined at p.m. at termination of experiment (70-75th week) with other tumours,[3],0
same,No. of mice examined at p.m. from 50-70th week with liver tumours,[3],0
same,No. of mice examined at p.m. from 50-70th week with lung tumours,[3],0
same,No. of mice examined at p.m. from 50-70th week with other tumours,[3],0
same,No. of survivors at 50 weeks,[4],13
same,No. of survivors at 70 weeks,[4],13
same,"effect on the incidence of liver, lung or other tumours",,no effect
same,No. of mice examined at p.m. at termination of experiment (70-75th week) with liver tumours,[5],4
same,No. of mice examined at p.m. at termination of experiment (70-75th week) with lung tumours,[5],2
same,No. of mice examined at p.m. at termination of experiment (70-75th week) with multiple liver tumours,[5],1
same,No. of mice examined at p.m. at termination of experiment (70-75th week) with multiple lung tumours,[5],1
same,No. of mice examined at p.m. at termination of experiment (70-75th week) with other tumours,[5],0
same,No. of mice examined at p.m. from 50-70th week with liver tumours,[5],0
same,No. of mice examined at p.m. from 50-70th week with lung tumours,[5],0
same,No. of mice examined at p.m. from 50-70th week with other tumours,[5],0
same,No. of survivors at 50 weeks,[6],19
same,No. of survivors at 70 weeks,[6],17
